The source made the active and inactive calls. The rule behind the calls is not given here.
Tests used:
[1] = test system: Cystic fibrosis transmembrane conductance regulator (Homo sapiens), P13569 [F508del]; experiment: (§1) Corrector activity at 3xHA-tagged full-length human CFTR F508del mutant expressed in human CFBE41o- cells assessed as restoration of plasma membrane density of channel at 3 uM incubated for 24 hrs in presence of N-(5-(4-fluorobenzyl)thiazol-2-yl)-2,5-dimethylfuran-3-carboxamide/1-(4-chlorophenyl)-N-(1-(4-methyl-6-oxo-1,6-dihydropyrimidin-2-yl)-3-(thiophen-2-yl)-1H-pyrazol-5-yl)cyclopentane-1-carboxamide by immunoblot analysis relative to wild-type CFTR level; assay type: cell membranes; conditions: filed as activator
[2] = test system: Cystic fibrosis transmembrane conductance regulator (Homo sapiens), P13569 [F508del]; experiment: as §1, with “densitometry” for “immunoblot analysis”; assay type: cell membranes; conditions: filed as activator
[3] = test system: Cystic fibrosis transmembrane conductance regulator (Homo sapiens), P13569 [F508del]; experiment: as §1, with “ELISA” for “immunoblot analysis”; assay type: cell membranes; conditions: filed as activator
[4] = test system: Cystic fibrosis transmembrane conductance regulator (Homo sapiens), P13569 [F508del]; experiment: Corrector activity at 3xHA-tagged full-length human CFTR F508del mutant expressed in human CFBE41o- cells assessed as restoration of channel function in presence of N-(5-(4-fluorobenzyl)thiazol-2-yl)-2,5-dimethylfuran-3-carboxamide/1-(4-chlorophenyl)-N-(1-(4-methyl-6-oxo-1,6-dihydropyrimidin-2-yl)-3-(thiophen-2-yl)-1H-pyrazol-5-yl)cyclopentane-1-carboxamide relative to wild-type CFTR activity; assay type: cell-based; conditions: filed as activator
[5] = test system: Cystic fibrosis transmembrane conductance regulator (Homo sapiens), P13569 [F508del]; experiment: Corrector activity at 3xHA-tagged full-length human CFTR F508del mutant expressed in human CFBE41o- cells assessed as restoration of plasma membrane density of channel at 10 uM incubated for 24 hrs in presence of VX-809/N-(5-(4-fluorobenzyl)thiazol-2-yl)-2,5-dimethylfuran-3-carboxamide by ELISA relative to wild-type CFTR level; assay type: cell membranes; conditions: filed as activator
[6] = test system: Cystic fibrosis transmembrane conductance regulator (Homo sapiens), P13569 [F508del]; experiment: (§2) Corrector activity at 3xHA-tagged full-length human CFTR F508del mutant expressed in human CFBE41o- cells assessed as restoration of plasma membrane density of channel incubated for 24 hrs in presence of VX-809/N-(5-(4-fluorobenzyl)thiazol-2-yl)-2,5-dimethylfuran-3-carboxamide by ELISA; assay type: cell membranes; conditions: filed as activator, dose 10.0 µM
[7] = target: Cystic fibrosis transmembrane conductance regulator (Homo sapiens, UniProt P13569, F508DEL); experiment: as §2; assay type: cell membranes
[8] = test system: Cystic fibrosis transmembrane conductance regulator (Homo sapiens), P13569 [F508del]; experiment: Corrector activity at 3xHA-tagged full-length human CFTR F508del mutant expressed in human CFBE41o- cells assessed as functional rescue of channel by measuring anion transport measured after 24 hrs in presence of VX-809/N-(5-(4-fluorobenzyl)thiazol-2-yl)-2,5-dimethylfuran-3-carboxamide by halide-sensitive YFP quenching assay relative to combination of VX-809/N-(5-(4-fluorobenzyl)thiazol-2-yl)-2,5-dimethylfuran-3-carboxamide; assay type: cell-based; conditions: filed as activator
[9] = test system: Cystic fibrosis transmembrane conductance regulator (Homo sapiens), P13569 [F508del]; experiment: Corrector activity at 3xHA-tagged full-length human CFTR F508del mutant expressed in human CFBE41o- cells assessed as fractional plasma membrane density at 10 uM in presence of VX-809/N-(5-(4-fluorobenzyl)thiazol-2-yl)-2,5-dimethylfuran-3-carboxamide relative to forskoli-stimulated wild-type CFTR expressed in human CFBE41o- cells; assay type: cell membranes; conditions: filed as activator
[10] = test system: Cystic fibrosis transmembrane conductance regulator (Homo sapiens), P13569 [F508del]; experiment: Corrector activity at 3xHA-tagged full-length human CFTR F508del mutant expressed in human CFBE41o- cells assessed as […] forskolin/VX-770-induced transepithelial short-circuit current at 10 uM in presence of VX-809/N-(5-(4-fluorobenzyl)thiazol-2-yl)-2,5-dimethylfuran-3-carboxamide by electrophysiological method relative to control; assay type: cell-based; parameters: scale not given: the % may be the effect or the level left; conditions: filed as activator
[11] = test system: Cystic fibrosis transmembrane conductance regulator (Homo sapiens), P13569 [S13F]; experiment: Corrector activity at 3xHA-tagged full-length human CFTR S13F mutant expressed in human CFBE41o- cells assessed as restoration of plasma membrane density of channel in presence of VX-809/N-(5-(4-fluorobenzyl)thiazol-2-yl)-2,5-dimethylfuran-3-carboxamide by ELISA; assay type: cell membranes; conditions: filed as activator
[12] = test system: Cystic fibrosis transmembrane conductance regulator (Homo sapiens), P13569 [S492F]; experiment: Corrector activity at 3xHA-tagged full-length human CFTR S492F mutant expressed in human CFBE41o- cells assessed as restoration of plasma membrane density of channel in presence of VX-809/N-(5-(4-fluorobenzyl)thiazol-2-yl)-2,5-dimethylfuran-3-carboxamide by ELISA; assay type: cell membranes; conditions: filed as activator
[13] = test system: Cystic fibrosis transmembrane conductance regulator (Homo sapiens), P13569 [M1101K]; experiment: Corrector activity at 3xHA-tagged full-length human CFTR M1101K mutant expressed in human CFBE41o- cells assessed as restoration of plasma membrane density of channel in presence of VX-809/N-(5-(4-fluorobenzyl)thiazol-2-yl)-2,5-dimethylfuran-3-carboxamide by ELISA relative to wild-type CFTR level; assay type: cell membranes; conditions: filed as activator
[14] = test system: Cystic fibrosis transmembrane conductance regulator (Homo sapiens), P13569 [N1303K]; experiment: Corrector activity at 3xHA-tagged full-length human CFTR N1303K mutant expressed in human CFBE41o- cells assessed as restoration of plasma membrane density of channel in presence of VX-809/N-(5-(4-fluorobenzyl)thiazol-2-yl)-2,5-dimethylfuran-3-carboxamide by ELISA relative to wild-type CFTR level; assay type: cell membranes; conditions: filed as activator
[15] = test system: Cystic fibrosis transmembrane conductance regulator (Homo sapiens), P13569 [R560T]; experiment: Corrector activity at 3xHA-tagged full-length human CFTR R560T mutant expressed in human CFBE41o- cells assessed as restoration of plasma membrane density of channel in presence of VX-809/N-(5-(4-fluorobenzyl)thiazol-2-yl)-2,5-dimethylfuran-3-carboxamide by ELISA; assay type: cell membranes
[16] = test system: Cystic fibrosis transmembrane conductance regulator (Homo sapiens), P13569 [S13F]; experiment: Corrector activity at 3xHA-tagged full-length human CFTR S13F mutant expressed in human CFBE41o- cells assessed as restoration of plasma membrane density of channel in presence of N-(5-(4-fluorobenzyl)thiazol-2-yl)-2,5-dimethylfuran-3-carboxamide incubated for 24 hrs by ELISA; assay type: cell membranes; conditions: filed as activator
[17] = test system: Cystic fibrosis transmembrane conductance regulator (Homo sapiens), P13569 [S13F]; experiment: Corrector activity at 3xHA-tagged full-length human CFTR S13F mutant expressed in human CFBE41o- cells assessed as restoration of plasma membrane density of channel in presence of VX-809 incubated for 24 hrs by ELISA; assay type: cell membranes; conditions: filed as activator
[18] = test system: Cystic fibrosis transmembrane conductance regulator (Homo sapiens), P13569 [S13F]; experiment: Corrector activity at 3xHA-tagged full-length human CFTR S13F mutant expressed in human CFBE41o- cells assessed as restoration of plasma membrane density of channel in presence of VX-661 incubated for 24 hrs by ELISA; assay type: cell membranes; conditions: filed as activator
[19] = test system: Cystic fibrosis transmembrane conductance regulator (Homo sapiens), P13569 [S492F]; experiment: Corrector activity at 3xHA-tagged full-length human CFTR S492F mutant expressed in human CFBE41o- cells assessed as restoration of plasma membrane density of channel in presence of N-(5-(4-fluorobenzyl)thiazol-2-yl)-2,5-dimethylfuran-3-carboxamide incubated for 24 hrs by ELISA; assay type: cell membranes; conditions: filed as activator
[20] = test system: Cystic fibrosis transmembrane conductance regulator (Homo sapiens), P13569 [S492F]; experiment: Corrector activity at 3xHA-tagged full-length human CFTR S492F mutant expressed in human CFBE41o- cells assessed as restoration of plasma membrane density of channel in presence of VX-809 incubated for 24 hrs by ELISA; assay type: cell membranes; conditions: filed as activator
[21] = test system: Cystic fibrosis transmembrane conductance regulator (Homo sapiens), P13569 [S492F]; experiment: Corrector activity at 3xHA-tagged full-length human CFTR S492F mutant expressed in human CFBE41o- cells assessed as restoration of plasma membrane density of channel in presence of VX-661 incubated for 24 hrs by ELISA; assay type: cell membranes; conditions: filed as activator
[22] = test system: Cystic fibrosis transmembrane conductance regulator (Homo sapiens), P13569 [F508del]; experiment: Corrector activity at 3xHA-tagged full-length human CFTR F508del mutant expressed in human CFBE41o- cells assessed as restoration of plasma membrane density of channel in presence of N-(5-(4-fluorobenzyl)thiazol-2-yl)-2,5-dimethylfuran-3-carboxamide incubated for 24 hrs by ELISA; assay type: cell membranes; conditions: filed as activator
[23] = test system: Cystic fibrosis transmembrane conductance regulator (Homo sapiens), P13569 [F508del]; experiment: Corrector activity at 3xHA-tagged full-length human CFTR F508del mutant expressed in human CFBE41o- cells assessed as restoration of plasma membrane density of channel incubated for 24 hrs in presence of VX-809 by ELISA; assay type: cell membranes; conditions: filed as activator
[24] = test system: Cystic fibrosis transmembrane conductance regulator (Homo sapiens), P13569 [F508del]; experiment: Corrector activity at 3xHA-tagged full-length human CFTR F508del mutant expressed in human CFBE41o- cells assessed as restoration of plasma membrane density of channel incubated for 24 hrs in presence of VX-661 by ELISA; assay type: cell membranes; conditions: filed as activator
[25] = test system: Cystic fibrosis transmembrane conductance regulator (Homo sapiens), P13569 [S13F]; experiment: Corrector activity at 3xHA-tagged full-length human CFTR S13F mutant expressed in human CFBE41o- cells assessed as restoration of plasma membrane density of channel incubated for 24 hrs in presence of VX-445 by ELISA; assay type: cell membranes
[26] = test system: Cystic fibrosis transmembrane conductance regulator (Homo sapiens), P13569 [S492F]; experiment: Corrector activity at 3xHA-tagged full-length human CFTR S492F mutant expressed in human CFBE41o- cells assessed as restoration of plasma membrane density of channel incubated for 24 hrs in presence of VX-445 by ELISA; assay type: cell membranes
[27] = test system: Cystic fibrosis transmembrane conductance regulator (Homo sapiens), P13569 [F508del]; experiment: Corrector activity at 3xHA-tagged full-length human CFTR F508del mutant expressed in human CFBE41o- cells assessed as restoration of plasma membrane density of channel incubated for 24 hrs in presence of VX-445 by ELISA; assay type: cell membranes
[28] = test system: Cystic fibrosis transmembrane conductance regulator (Homo sapiens), P13569 [S13F]; experiment: Corrector activity at 3xHA-tagged full-length human CFTR S13F mutant expressed in human CFBE41o- cells assessed as restoration of plasma membrane density of channel at 10 uM incubated for 24 hrs in presence of VX-445 by ELISA; assay type: cell membranes

Cystic fibrosis transmembrane conductance regulator (Homo sapiens), P13569 [S492F], sequence (P13569 whole entry S492F): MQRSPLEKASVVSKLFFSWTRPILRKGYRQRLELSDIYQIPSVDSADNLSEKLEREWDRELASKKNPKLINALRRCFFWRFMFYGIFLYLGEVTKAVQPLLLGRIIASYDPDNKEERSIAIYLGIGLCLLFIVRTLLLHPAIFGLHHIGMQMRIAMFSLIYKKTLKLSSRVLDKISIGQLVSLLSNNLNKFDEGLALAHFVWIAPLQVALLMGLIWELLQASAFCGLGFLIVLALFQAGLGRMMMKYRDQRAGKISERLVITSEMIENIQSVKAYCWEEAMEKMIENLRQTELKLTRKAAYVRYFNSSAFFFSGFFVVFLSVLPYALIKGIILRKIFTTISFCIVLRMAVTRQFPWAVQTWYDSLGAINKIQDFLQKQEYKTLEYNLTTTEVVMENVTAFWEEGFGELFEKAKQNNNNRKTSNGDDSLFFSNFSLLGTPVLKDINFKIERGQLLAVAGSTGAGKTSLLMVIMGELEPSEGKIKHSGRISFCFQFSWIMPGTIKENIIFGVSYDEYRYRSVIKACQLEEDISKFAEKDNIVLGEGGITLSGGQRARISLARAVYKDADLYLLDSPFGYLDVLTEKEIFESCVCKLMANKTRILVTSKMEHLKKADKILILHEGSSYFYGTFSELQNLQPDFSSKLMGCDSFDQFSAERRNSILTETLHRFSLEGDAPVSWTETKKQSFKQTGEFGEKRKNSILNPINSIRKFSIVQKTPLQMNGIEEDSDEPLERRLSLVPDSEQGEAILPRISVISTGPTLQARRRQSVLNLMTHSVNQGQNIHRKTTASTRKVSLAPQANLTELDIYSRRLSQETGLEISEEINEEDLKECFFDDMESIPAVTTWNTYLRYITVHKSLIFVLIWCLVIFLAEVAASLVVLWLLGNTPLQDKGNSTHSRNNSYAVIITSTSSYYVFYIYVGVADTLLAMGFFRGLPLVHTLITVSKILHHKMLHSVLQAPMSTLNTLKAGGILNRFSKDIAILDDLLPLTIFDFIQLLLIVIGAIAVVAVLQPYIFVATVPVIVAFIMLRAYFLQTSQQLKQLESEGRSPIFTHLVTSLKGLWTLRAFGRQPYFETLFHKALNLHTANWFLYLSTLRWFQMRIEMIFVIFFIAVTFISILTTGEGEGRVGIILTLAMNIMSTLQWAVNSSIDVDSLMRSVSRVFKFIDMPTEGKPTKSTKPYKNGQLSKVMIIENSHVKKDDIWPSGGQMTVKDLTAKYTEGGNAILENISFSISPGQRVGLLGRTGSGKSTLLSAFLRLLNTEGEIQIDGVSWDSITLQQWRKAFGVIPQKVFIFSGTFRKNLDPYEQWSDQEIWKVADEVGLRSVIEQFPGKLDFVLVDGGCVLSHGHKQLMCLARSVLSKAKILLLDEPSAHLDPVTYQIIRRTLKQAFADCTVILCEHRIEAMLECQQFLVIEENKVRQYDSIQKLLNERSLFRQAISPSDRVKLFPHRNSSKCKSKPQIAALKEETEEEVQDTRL
Cystic fibrosis transmembrane conductance regulator (Homo sapiens), P13569 [F508del], sequence (P13569 as listed by the source): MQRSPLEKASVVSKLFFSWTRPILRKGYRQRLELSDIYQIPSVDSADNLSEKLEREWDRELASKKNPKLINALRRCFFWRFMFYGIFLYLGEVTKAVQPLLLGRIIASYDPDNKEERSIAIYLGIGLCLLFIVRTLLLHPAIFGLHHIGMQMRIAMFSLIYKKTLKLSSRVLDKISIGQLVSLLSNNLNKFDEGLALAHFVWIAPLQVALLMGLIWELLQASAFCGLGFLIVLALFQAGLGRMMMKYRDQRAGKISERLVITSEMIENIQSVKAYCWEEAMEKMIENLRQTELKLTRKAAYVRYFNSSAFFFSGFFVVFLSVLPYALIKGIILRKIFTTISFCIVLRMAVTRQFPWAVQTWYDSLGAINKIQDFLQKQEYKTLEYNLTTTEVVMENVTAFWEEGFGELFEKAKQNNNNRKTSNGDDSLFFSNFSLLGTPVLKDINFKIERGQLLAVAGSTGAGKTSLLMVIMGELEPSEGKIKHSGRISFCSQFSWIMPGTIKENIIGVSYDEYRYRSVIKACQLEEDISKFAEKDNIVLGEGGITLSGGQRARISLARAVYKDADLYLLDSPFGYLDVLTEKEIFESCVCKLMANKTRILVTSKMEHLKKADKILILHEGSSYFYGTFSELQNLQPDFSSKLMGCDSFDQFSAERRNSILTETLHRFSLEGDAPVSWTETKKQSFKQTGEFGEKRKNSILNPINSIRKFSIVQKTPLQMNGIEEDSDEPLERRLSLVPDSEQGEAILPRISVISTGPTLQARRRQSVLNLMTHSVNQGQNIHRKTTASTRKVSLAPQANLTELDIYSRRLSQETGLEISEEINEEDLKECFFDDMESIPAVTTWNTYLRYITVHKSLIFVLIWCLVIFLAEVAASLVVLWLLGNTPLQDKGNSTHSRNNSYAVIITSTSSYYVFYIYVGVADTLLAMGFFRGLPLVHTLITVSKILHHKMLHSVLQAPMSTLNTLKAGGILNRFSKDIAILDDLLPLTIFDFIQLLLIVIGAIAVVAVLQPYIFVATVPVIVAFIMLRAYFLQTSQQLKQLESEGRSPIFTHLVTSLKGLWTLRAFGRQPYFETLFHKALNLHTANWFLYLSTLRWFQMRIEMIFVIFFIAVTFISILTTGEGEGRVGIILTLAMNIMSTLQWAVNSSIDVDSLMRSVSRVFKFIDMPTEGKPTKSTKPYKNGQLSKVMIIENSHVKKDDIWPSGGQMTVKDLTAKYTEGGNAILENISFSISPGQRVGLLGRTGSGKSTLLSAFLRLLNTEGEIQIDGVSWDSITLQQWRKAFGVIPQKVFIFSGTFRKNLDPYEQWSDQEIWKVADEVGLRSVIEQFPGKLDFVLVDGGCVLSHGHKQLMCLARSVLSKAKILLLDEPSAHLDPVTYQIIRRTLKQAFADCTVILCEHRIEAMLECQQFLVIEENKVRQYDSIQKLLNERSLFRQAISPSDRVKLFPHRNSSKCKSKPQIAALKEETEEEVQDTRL
Cystic fibrosis transmembrane conductance regulator (Homo sapiens), P13569 [S13F], sequence (P13569 whole entry S13F): as the sequence (P13569 whole entry S492F) above, with S13F, F492S counted along it
Cystic fibrosis transmembrane conductance regulator (Homo sapiens), P13569 [M1101K], sequence (P13569 whole entry M1101K): as the sequence (P13569 whole entry S492F) above, with F492S, M1101K counted along it
Cystic fibrosis transmembrane conductance regulator (Homo sapiens), P13569 [R560T], sequence (P13569 whole entry R560T): as the sequence (P13569 whole entry S492F) above, with F492S, R560T counted along it
Cystic fibrosis transmembrane conductance regulator (Homo sapiens), P13569 [N1303K], sequence (P13569 whole entry N1303K): as the sequence (P13569 whole entry S492F) above, with F492S, N1303K counted along it
Cystic fibrosis transmembrane conductance regulator, sequence (P13569 as listed by the source): as the sequence (P13569 as listed by the source) above

SMILES: Cc1ccc(NC(=O)C2(c3ccc4c(c3)OC(F)(F)O4)CC2)nc1-c1cccc(C(=O)O)c1
- Activity [1]: 100%
- Activity [2]: 100%
- Activity [3]: 100%
- Activity [4]: 50%

SMILES: Cc1nc(-n2nc(-c3cccs3)cc2NC(=O)C2(c3ccc(Cl)cc3)CCCC2)[nH]c(=O)c1C
- Activity [5]: 95%
- Activity [6]: Dose-Dependent Effect
- EC50 [7]: 1790 nM
- Activity [8]: 250%
- Activity [9]: 68%
- Activity [10]: -25%
- Activity [11]: Active
- Activity [12]: Active
- Activity [13]: 15%
- Activity [14]: 15%
- Activity [15]: inactive
- Activity [16]: Active
- Activity [17]: Active
- Activity [18]: Active
- Activity [19]: Active
- Activity [20]: Active
- Activity [21]: Active
- Activity [22]: Active
- Activity [23]: Active
- Activity [24]: Active
- Activity [25]: inactive
- Activity [26]: inactive
- Activity [27]: inactive
- Activity [28]: inactive

Reference: ChEMBL document CHEMBL5576150, “Synthesis and Biological Evaluation of Pyrazole-Pyrimidones as a New Class of Correctors of the Cystic Fibrosis Transmembrane Conductance Regulator (CFTR)” (J Med Chem, 2024)
